From PMC11316798, “Signaling by a bacterial phytochrome histidine kinase involves a conformational cascade reorganizing the dimeric photoreceptor” (Nature Communications, 2024)

Experiments:
[1] = biological target: T1, PsBphP1 (Pseudomonas syringae group genomosp. 3, UniProt Q885D3); details: labelled compound; Pfr under red light; 150 uM ATP, 5 mM MgCl2, pH 7.5, 22 °C; phosphoacceptor His530
T1 construct: gene bphP
T1 sequence (Q885D3 1-745): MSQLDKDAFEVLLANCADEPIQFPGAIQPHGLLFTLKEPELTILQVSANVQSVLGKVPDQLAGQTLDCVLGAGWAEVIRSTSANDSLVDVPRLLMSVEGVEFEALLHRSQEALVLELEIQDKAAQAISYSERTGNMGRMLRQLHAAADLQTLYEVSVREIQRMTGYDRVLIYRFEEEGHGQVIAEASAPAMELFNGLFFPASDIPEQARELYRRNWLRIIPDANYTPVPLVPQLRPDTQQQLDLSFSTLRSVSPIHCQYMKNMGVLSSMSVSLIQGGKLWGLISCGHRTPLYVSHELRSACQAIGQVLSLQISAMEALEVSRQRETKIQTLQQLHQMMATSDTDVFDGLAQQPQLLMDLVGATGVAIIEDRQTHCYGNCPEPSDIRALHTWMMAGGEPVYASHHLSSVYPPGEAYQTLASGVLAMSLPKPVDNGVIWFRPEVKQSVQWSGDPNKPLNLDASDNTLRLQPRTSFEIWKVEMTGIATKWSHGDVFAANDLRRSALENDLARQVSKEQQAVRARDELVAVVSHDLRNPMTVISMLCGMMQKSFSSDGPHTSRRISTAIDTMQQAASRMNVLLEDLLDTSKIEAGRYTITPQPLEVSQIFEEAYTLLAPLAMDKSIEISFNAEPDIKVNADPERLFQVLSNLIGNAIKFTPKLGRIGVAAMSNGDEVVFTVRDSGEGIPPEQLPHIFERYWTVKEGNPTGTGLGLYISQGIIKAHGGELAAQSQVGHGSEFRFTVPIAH

[2] = biological target: T2, PsAlgB (mixed with PsBphP1) (Pseudomonas syringae group genomosp. 3, UniProt Q88AQ2); details: 1.5 mM ATP, 5 mM MgCl2, pH 7.5, 22 °C, 175 mM KSCN; needs PsBphP1 (Pr or Pfr); authors presume the ATPase is intrinsic to PsAlgB
T2 construct: gene algB

[3] = biological target: the molecule itself; assay: cryo-EM structure; PsBphP1 as Pr (dark-adapted), 0.5 mg/mL, 175 mM KSCN, 10 mM 2-mercaptoethanol, 10 mM HEPES-NaOH pH 7.5; head-to-head dimer
[4] = biological target: the molecule itself; assay: cryo-EM structure; PsBphP1 as Pfr (irradiated 10 min with 630-nm LED), 0.5 mg/mL, 175 mM KSCN, 10 mM 2-mercaptoethanol, 10 mM HEPES-NaOH pH 7.5; dimers (medial, splayed) and tetrameric dimer-of-dimers

T2 sequence (Q88AQ2 whole entry, one chain of several): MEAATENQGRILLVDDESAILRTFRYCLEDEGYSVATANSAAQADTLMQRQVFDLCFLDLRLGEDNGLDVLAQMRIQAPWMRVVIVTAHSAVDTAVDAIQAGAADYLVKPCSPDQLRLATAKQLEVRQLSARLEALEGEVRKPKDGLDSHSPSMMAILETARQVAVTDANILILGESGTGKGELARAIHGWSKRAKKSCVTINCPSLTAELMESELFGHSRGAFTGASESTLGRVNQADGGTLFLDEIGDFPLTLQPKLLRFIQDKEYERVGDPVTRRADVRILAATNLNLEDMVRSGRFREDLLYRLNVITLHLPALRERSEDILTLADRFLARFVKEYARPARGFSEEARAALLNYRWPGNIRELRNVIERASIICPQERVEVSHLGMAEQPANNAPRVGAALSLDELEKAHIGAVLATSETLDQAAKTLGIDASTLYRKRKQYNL

Nc1ncnc2c1ncn2[C@@H]1O[C@H](COP(=O)(O)OP(=O)(O)OP(=O)(O)O)[C@@H](O)[C@H]1O [ATP]
autophosphorylation with 32P-ATP, SDS-PAGE and phosphorimaging [1]: initial autophosphorylation of PsBphP1 required the predicted internal phosphoacceptor His530 | SEC elution shift of ATP to ADP [2]: the two proteins together elicited robust ATPase activity for PsAlgB

B1: Pseudomonas syringae bacteriophytochrome photoreceptor BphP1 (PsBphP1), full length, assembled with biliverdin (natural protein)
chain: GMSQLDKDAFEVLLANCADEPIQFPGAIQPHGLLFTLKEPELTILQVSANVQSVLGKVPDQLAGQTLDCVLGAGWAEVIRSTSANDSLVDVPRLLMSVEGVEFEALLHRSQEALVLELEIQDKAAQAISYSERTGNMGRMLRQLHAAADLQTLYEVSVREIQRMTGYDRVLIYRFEEEGHGQVIAEASAPAMELFNGLFFPASDIPEQARELYRRNWLRIIPDANYTPVPLVPQLRPDTQQQLDLSFSTLRSVSPIHCQYMKNMGVLSSMSVSLIQGGKLWGLISCGHRTPLYVSHELRSACQAIGQVLSLQISAMEALEVSRQRETKIQTLQQLHQMMATSDTDVFDGLAQQPQLLMDLVGATGVAIIEDRQTHCYGNCPEPSDIRALHTWMMAGGEPVYASHHLSSVYPPGEAYQTLASGVLAMSLPKPVDNGVIWFRPEVKQSVQWSGDPNKPLNLDASDNTLRLQPRTSFEIWKVEMTGIATKWSHGDVFAANDLRRSALENDLARQVSKEQQAVRARDELVAVVSHDLRNPMTVISMLCGMMQKSFSSDGPHTSRRISTAIDTMQQAASRMNVLLEDLLDTSKIEAGRYTITPQPLEVSQIFEEAYTLLAPLAMDKSIEISFNAEPDIKVNADPERLFQVLSNLIGNAIKFTPKLGRIGVAAMSNGDEVVFTVRDSGEGIPPEQLPHIFERYWTVKEGNPTGTGLGLYISQGIIKAHGGELAAQSQVGHGSEFRFTVPIAH
modifications: biliverdin (BV) covalently linked via a thioether linkage to Cys16
notes: PsBphP1, bacteriophytochrome histidine kinase of Pseudomonas syringae, full-length polypeptide, residues 1-745; One molecule for both light states: Pr (dark-adapted) and Pfr (red-light irradiated, ~80% Pfr); the state is named in each assay; Dimer as Pr; dimer-tetramer (dimer-of-dimers) equilibrium as Pfr; also called P. syringae BphP1; P. syringae BphP; not shown: His6, N-terminal, cleaved
stoichiometry N [3]: 2 | stoichiometry N [4]: 4
